# Tests used:
# [1] = tested on: Tracheal chains of guinea pig; experiment: In vitro bronchodilator activity, relaxation of tracheal chains (Magnus method); conditions: Cavia porcellus, relative to 0.1 mcg./ml. isoproterenol, read-out: EC50 (concentration producing a relaxation which is 50% of the maximum response to 0.1 mcg./ml. of isoproterenol)
# Experimental: Tracheal chains of guinea pig were prepared by the method of A. Akcasu, Arch. Int. […] The response to each test compound was recorded by the Magnus method and expressed as a percentage of the maximum response obtained with 0.1 mcg./ml. of isoproterenol prior to each experiment.
# guinea pig = experiment: In vivo bronchodilator and hypotensive activity (intratracheal pressure and arterial blood pressure in anesthetized guinea pig); conditions: intravenous; for ED50: Cavia porcellus, bronchodilator activity, read-out: ITP ED50 (dose resulting in a 50% decrease in intratracheal pressure); for ABP ED20 (dose which reduces arterial blood pressure by 20%): hypotensive activity; for Ratio ABP/ITP (hypotensive ED20/bronchodilating ED50): separation of bronchodilator from hypotensive effect
# Experimental: The trachea of anesthetized guinea pig was cannulated and the ITP recorded on a polygraph under artificial ventilation. Arterial blood pressure (ABP; reflecting hypotensive activity) was also measured during the experiment. Either intravenous or intraduodenal routes of administration are used. […] The ratio of hypotensive ED20 /brochodilating ED50 reflects an assessment of the separation of desirable brochodilator activity from undesirable cardiovascular (hypotensive) effect in the compounds.
SMILES,EC50 [1] [µg/mL],ED50 (guinea pig) [mg/kg],ABP ED20 (dose which reduces arterial blood pressure by 20%) (guinea pig) [mg/kg],Ratio ABP/ITP (hypotensive ED20/bronchodilating ED50) (guinea pig)
"Nc1nc(NC2CCCCC2)nc2c1ncn2C1CCCCC1 [Example 4, 9-Cyclohexyl-2-cyclohexylamino-9H-adenine]",0.21,1.5,> 3,> 2
"Cn1c(=O)c2[nH]cnc2n(C)c1=O [Aminophylline, reference compound]",–,–,1.4,–
"Nc1nc(NC2CCCCC2)nc2c1ncn2C1C=CCCC1 (centres unmarked) [Example 2, 9-(2-Cyclohexenyl)-2-cyclohexylamino-9H-adenine]",0.24,> 3,2.4,< 0.8
"CCCNc1nc(N)c2ncn(C3C=CCCC3)c2n1 (centres unmarked) [Example 1, 9-(2-Cyclohexenyl)-2-n-propylamino-9H-adenine]",0.47,1.4,> 3,> 2.1
"CCCNc1nc(N)c2ncn(C3CCCCC3)c2n1 [Example 3, 9-Cyclohexyl-2-n-propylamino-9H-adenine]",0.75,0.49,2.8,5.7

# Source: patent US4232155A, “Purine compounds” (Bristol-Myers Company, priority 1979, dated 1980)
